Source: paper PMC8148468, “Shikimic acid protects skin cells from UV-induced senescence through activation of the NAD+-dependent deacetylase SIRT1” (Aging (Albany NY), 2021)

Test system: HAS2 (hyaluronic acid synthase 2)
Assay: UVB-induced senescence assay: HAS2 gene expression (qPCR)
Format: cell-based, human
Settings: UVB-irradiated HDF
Protocol: In the second approach, we established a method for inducing senescence in these cells with 2 cycles of UVB irradiation 72h apart (Figure 2A). The use of UVA to induce senescence was discarded due to its considerably longer time requirement, being unsuitable to screen 30 compounds within a reasonable period. Cells were treated with these compounds throughout the duration of the assay and cellular senescence was monitored with two markers: accumulation of SA-β-galactosidase (SA-β-Gal) activity, and the decrease in expression of HAS2 (hyaluronic acid synthase 2), a previously reported marker of skin senescence.
Figure 2 (A) Schematic representation of the protocol for senescence induction using UVB irradiation. Cells were treated -/+ the compounds from day 1 to 7 after seeding, irradiated with UVB on days 2 and 5 and harvested for analysis on day 7. […] (C) Phase-contrast (left column) and bright field (right column) microscope images of SA-β-Gal staining showing non-irradiated cells, UVB-irradiated cells non-treated and treated with Gallic acid or Shikimic acid at the indicated concentrations. (D) Percentage of SA-β-Gal positive cells and (E) Relative HAS2 mRNA levels in non-irradiated cells, UVB-irradiated cells and UVB-irradiated cells treated with Gallic acid or Shikimic acid at the indicated concentrations. Student T-test, *p<0.05, **p<0.01, ***p<0.001.
RNA was extracted from cell pellets using the Total RNA Purification Kit (Norgen, Canada), according to the manufacturer’s protocol. Extracted RNA was quantified using a NanoDrop® ND-1000 UV-Vis Spectrophotometer (Thermo Fisher Scientific, USA) and 300 ng of RNA were retrotranscribed to cDNA using the PrimeScriptTM RT reagent kit (Takara Bio Inc., Japan). cDNA was diluted 1/10 in ultrapure water and qPCR mix was prepared by adding cDNA (12 ng), SYBR green supermix (Bio Rad, USA), forward and reverse primers (0.2μM). The primers and their respective sequences are listed in Supplementary Table 1. qPCR protocol included one step at 95° C for 30 s, 40 cycles at 95° C for 10s, and 60° C for 1min. The results were analyzed with Bio-Rad CFX Manager software. BACT was used as a housekeeping gene to normalize gene expression.
Senescence induction by UVB irradiation For the non-irradiation control conditions, HDF were […]
After 24h, culture medium was removed and well plates. After 24h, culture medium was removed replaced by fresh cell culture medium containing the and replaced with fresh cell culture medium containing compounds at different concentrations. After 24h, the compounds at different concentrations. […]
cell culture medium was removed, and cells were cells/plate in fresh cell culture medium containing the irradiated at 25 mJ/cm2 of UVB light (312 nm) in a Bio- compound in 6-well plates. After 3 days, cells were […]
amount of PBS. PBS was then removed and fresh cell fresh cell culture medium containing the compound in culture medium with the compound was added to each 6-well plates. After 2 days, cells were processed well. After 3 days, cells were irradiated again under the according to the qPCR, β-Gal staining, apoptosis, cell same conditions. After 2 days, cells were processed cycle or immunofluorescence protocols. according to the qPCR, β-Gal staining, apoptosis, cell cycle or immunofluorescence protocols.

Compound: O=C(O)C1=C[C@@H](O)[C@@H](O)[C@H](O)C1 [Shikimic acid]
- HAS2 expression: increase in HAS2 expression
